# Measured values taken from PubChem BioAssay (NCI).
# Values joined by “and” are separate entries in the source; they are usually repeats but may differ in a detail not shown here. Equal entries are not always repeated.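 48-hour exposure; five concentrations; linearly interpolated endpoints. GI50 is the concentration that inhibits growth by half. The concentration for full growth arrest is given as TGI.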
# Columns and labels:
# Assay in all cases: growth of human tumour cells (NCI), 48 h
# SK-MEL-2 melanoma = test system: SK-MEL-2 melanoma
# SK-MEL-5 melanoma = test system: SK-MEL-5 melanoma
# K-562 leukemia = test system: K-562 leukemia
# IGROV1 ovarian = test system: IGROV1 ovarian
# MDA-MB-231 breast = test system: MDA-MB-231 breast
# MOLT-4 leukemia = test system: MOLT-4 leukemia
# HCT-15 colon = test system: HCT-15 colon
# HOP-62 NSCLC = test system: HOP-62 NSCLC
# HS 578T breast = test system: HS 578T breast
# CAKI-1 renal = test system: CAKI-1 renal
SMILES,TGI (SK-MEL-2 melanoma),TGI (SK-MEL-5 melanoma),TGI (K-562 leukemia),TGI (IGROV1 ovarian),TGI (MDA-MB-231 breast),TGI (MOLT-4 leukemia),TGI (HCT-15 colon),TGI (HOP-62 NSCLC),TGI (HS 578T breast),TGI (CAKI-1 renal),GI50 (SK-MEL-2 melanoma),GI50 (SK-MEL-5 melanoma),GI50 (K-562 leukemia),GI50 (IGROV1 ovarian),GI50 (MDA-MB-231 breast),GI50 (MOLT-4 leukemia),GI50 (HCT-15 colon),GI50 (HOP-62 NSCLC),GI50 (HS 578T breast),GI50 (CAKI-1 renal)
COc1c2occc2c(N)c2ccc(=O)oc12,> 100 µM,> 100 µM,> 100 µM,> 100 µM,> 100 µM,> 100 µM,> 100 µM,> 100 µM,> 100 µM,> 100 µM,,,,,,,,,,
O=c1[nH]c(O)c(C=Nc2ccc(-c3nc4ccccc4o3)cc2)c(=O)[nH]1,> 100 µM,> 100 µM,> 100 µM,> 100 µM,> 100 µM,> 100 µM,> 100 µM,> 100 µM,> 100 µM,> 100 µM,37.8 µM,44.8 µM,35 µM,> 100 µM,29.2 µM,> 100 µM,32.4 µM,> 100 µM,> 100 µM,33.1 µM
COc1cc2c(cc1OCCCN1CCN(CCCOc3cc4c(cc3OC)C(=O)N3CC(F)(F)C[C@H]3C=N4)CC1)N=C[C@@H]1CC(F)(F)CN1C2=O,23.1 µM,4.16 µM,> 100 µM,5.13 µM,17.6 µM,8.37 µM,36.7 µM,6.07 µM,9.55 µM,13.5 µM,10.3 µM,1.86 µM,1.74 µM,1.92 µM,4.29 µM,2.02 µM,16.2 µM,3.17 µM,2.32 µM,3.31 µM
Nc1c(C(=O)Nc2ccccn2)sc2nc3c(cc12)C(=O)CCC3,> 100 µM,> 100 µM,> 100 µM,> 100 µM,> 100 µM,> 100 µM,> 100 µM,> 100 µM,93.7 µM,> 100 µM,0.443 µM,0.444 µM,0.463 µM,2.23 µM,4.54 µM,> 100 µM,0.812 µM,1.75 µM,0.804 µM,0.697 µM
C=C(C)C(C1C=C(CCC(C=O)=C(C)C)C(=O)O1)C1(OC)C=C(C)C(=O)O1 (stereo not given),> 100 µM,> 100 µM,> 100 µM,> 100 µM,> 100 µM,> 100 µM,> 100 µM,> 100 µM,> 100 µM,> 100 µM,> 100 µM,71.4 µM,73.2 µM,92.6 µM,> 100 µM,34.8 µM,> 100 µM,> 100 µM,> 100 µM,> 100 µM
Nc1nc(Cl)nc2c1ncn2C1CC(O)C(CO)O1 (stereo not given),> 100 µM,> 91.4 µM,> 100 µM,> 100 µM,> 100 µM,> 79.3 µM,> 100 µM,6.8 µM,> 100 µM,17.3 µM,,,,,> 79.8 µM,,,,> 100 µM,
CCSc1nc(N=Cc2ccccc2O)c2cn[nH]c2n1,> 100 µM,65.9 µM,> 100 µM,> 100 µM,> 100 µM,> 100 µM,> 100 µM,> 100 µM,69.2 µM,82.4 µM,39.9 µM,23.8 µM,41.6 µM,40.9 µM,12.7 µM,52.8 µM,39.8 µM,54.5 µM,20.9 µM,19.3 µM
CNCCCNc1ccnc2cc(Cl)ccc12,37.9 µM,31.6 µM,> 100 µM,63.8 µM,56.5 µM,69.9 µM,94.4 µM,> 100 µM,78 µM,48.6 µM,19.6 µM,16.4 µM,15.2 µM,18.8 µM,12.7 µM,20.6 µM,23.3 µM,22.4 µM,20.8 µM,17.3 µM
CCn1cc(-c2ccnc3[nH]c(-c4cccc(CN(C)C)c4)cc23)c(-c2ccc(NC(=O)N(C)C)cc2)n1,9.87 µM and > 10 µM,23.6 µM,17.2 µM and 2.96 µM,33.2 µM and > 10 µM,19.8 µM and > 10 µM,39.3 µM and > 10 µM,27.2 µM and > 10 µM,14.4 µM and > 10 µM,9.99 µM and 6.9 µM,18.9 µM and > 10 µM,2.43 µM and 2.19 µM,6.55 µM,,3.47 µM and 1.9 µM,3.52 µM and 2.95 µM,2.15 µM and 1.74 µM,2.85 µM and 3.15 µM,0.385 µM and 1.28 µM,1.52 µM and 1.2 µM,3.36 µM and 1.17 µM
CCN(CCNS(C)(=O)=O)c1ccc(N)c(C)c1,29.3 µM,24.6 µM,18.4 µM,13.4 µM,25.4 µM,59.6 µM,17.4 µM,31.1 µM,> 100 µM,6.78 µM,14.3 µM,11.9 µM,3.39 µM,4.3 µM,11.8 µM,23.1 µM,3.48 µM,16.2 µM,32.9 µM,2.54 µM
C=C(C)[C@@H]1CC[C@]2(CN)CC[C@]3(C)[C@H](CC[C@@H]4[C@@]5(C)CCCNC(C)(C)[C@@H]5CC[C@]43C)[C@@H]12,3.88 µM,3 µM,,3.57 µM,3.52 µM,4.47 µM,2.49 µM,3.73 µM,4 µM,3.02 µM,2.11 µM,1.56 µM,,1.82 µM,1.79 µM,1.93 µM,1.19 µM,1.93 µM,1.8 µM,1.66 µM
O=c1cccc(C#CC#C[C@@H]2O[C@H]2CO)o1,,3.9 µM,> 100 µM,0.339 µM,0.877 µM,> 100 µM,3.14 µM,3.03 µM,24.5 µM,2.71 µM,2.2 µM,1.87 µM,1.49 µM,0.183 µM,0.233 µM,0.33 µM,1.42 µM,1.55 µM,5.18 µM,1.1 µM
CN(C)CCN1CCC(Cc2ccccc2)CC1,> 80 µM,> 80 µM,> 80 µM,> 80 µM,> 80 µM,> 80 µM,> 80 µM,> 80 µM,> 80 µM,> 80 µM,> 80 µM,43.2 µM,15.4 µM,> 80 µM,> 80 µM,> 80 µM,> 80 µM,> 80 µM,44.1 µM,> 80 µM
CCN(Cc1c(F)cccc1OC)c1ccc(CO)c(Cl)c1,21.7 µM,24.2 µM,15.7 µM,,40.9 µM,52.3 µM,41.5 µM,25.5 µM,53.4 µM,35.5 µM,2.39 µM,11.9 µM,0.623 µM,< 0.036 µM,14.5 µM,17.4 µM,12.8 µM,2.69 µM,19.1 µM,3.05 µM
COC(=O)c1c(C)cc(OC)c(C/C=C(\C)CCCc2coc(C=C(C)C)c2)c1OC,> 100 µM,> 100 µM,> 100 µM,> 100 µM,> 100 µM,> 100 µM,> 100 µM,> 100 µM,79.7 µM,> 100 µM,,,,,,,,,,
Cc1cc(C(=O)CSC(=S)SC(C)(C)C)ccc1Cl,35 µM,31.7 µM,> 100 µM,> 100 µM,36.4 µM,62.9 µM,57.6 µM,37.4 µM,82.3 µM,> 100 µM,,,,,,,,,,
COc1ccc(-c2c(C#N)c(N3CCOCC3)nc3[nH]c(=S)[nH]c(=S)c23)cc1OC,> 100 µM,> 100 µM,> 100 µM,> 100 µM,77.1 µM,> 100 µM,> 100 µM,> 100 µM,> 100 µM,87.3 µM,> 100 µM,27.5 µM,36.7 µM,> 100 µM,13.9 µM,39.6 µM,43.6 µM,83.2 µM,47.3 µM,30.7 µM
CCOC(=O)c1c(C)c2c(n1Cc1ccccc1)CSCC2=O,45.7 µM,23.9 µM,> 100 µM,> 100 µM,51.2 µM,51.9 µM,> 100 µM,63.5 µM,53.3 µM,52.2 µM,18.4 µM,11.6 µM,21.7 µM,16.9 µM,14.7 µM,12.2 µM,19.7 µM,22.9 µM,10.8 µM,11 µM
NNc1ncnc2nc[nH]c12,97.4 µM,36.4 µM,> 100 µM,> 55.1 µM,31.7 µM,> 60.1 µM,> 100 µM,10.5 µM,> 70 µM,18.3 µM,9.27 µM,6.05 µM,3.4 µM,3.56 µM,2.92 µM,5.31 µM,4.58 µM,2.25 µM,7.71 µM,0.793 µM
COc1cc(/C=C2\CCCCC3=C2N=C2SC(C)=CN2C3c2cc(OC)c(OC)c(OC)c2)cc(OC)c1OC (stereo not given),> 100 µM,21 µM,> 100 µM,> 100 µM,> 100 µM,78 µM,,> 100 µM,> 100 µM,> 100 µM,9.91 µM,0.077 µM,0.36 µM,63.5 µM,4.24 µM,0.542 µM,,4.7 µM,16 µM,73.3 µM
NCCCn1c2c(c3ccc([N+](=O)[O-])cc3c1=O)C(=O)c1cc(I)ccc1-2,2.28 µM,1.45 µM,0.196 µM,,3.48 µM,0.251 µM,1.79 µM,1.75 µM,4.33 µM,1.98 µM,0.649 µM,0.172 µM,< 0.0147 µM,,1.8 µM,< 0.01 µM,0.17 µM,0.0211 µM,1.98 µM,0.0758 µM
CC(C)=CCC1=C(O)c2ccccc2C(=O)C1=O,> 88.3 µM,27 µM and 28 µM,> 100 µM,> 100 µM,> 100 µM,,> 100 µM,> 100 µM,> 100 µM,> 100 µM,68.7 µM,11.2 µM,,> 100 µM and 46.2 µM and 14.8 µM,21 µM,,,,,
N#CC(I)CS(=O)(=O)c1ccccc1 (stereo not given),33.2 µM,31.9 µM,,39.8 µM,33.9 µM,,19.4 µM,38.4 µM,61.4 µM,3.32 µM,17.6 µM,17.7 µM,,16.2 µM,17.3 µM,,5.48 µM,19.3 µM,26.5 µM,1.61 µM
Cc1nc2sccn2c1-c1nc2sccn2c1/C=C1/C(=O)Nc2ccccc21,36.8 µM,12.5 µM,> 100 µM,7.77 µM,23.9 µM,,20.7 µM,> 100 µM,9.75 µM,69.4 µM,2.68 µM,2.94 µM,> 100 µM,1.92 µM,4.85 µM,,3.09 µM,3.61 µM,1.96 µM,5.29 µM
CO[C@@H]1CC[C@]2(C)OC[C@H](C)[C@@H]3C[C@@H](C)[C@@H](OC(C)=O)[C@@H]4[C@H]3[C@@H]2O[C@H]4C[C@@]1(C)O,> 100 µM,> 100 µM,> 100 µM,> 100 µM,> 100 µM,> 100 µM,> 100 µM,,> 100 µM,> 100 µM,> 100 µM,> 100 µM,> 100 µM,> 100 µM,> 100 µM,> 100 µM,> 100 µM,,> 100 µM,> 100 µM
CCCCCCCCSC1=C(Cl)C(=O)C(OC)=C(OC)C1=O,30.9 µM,18.6 µM,> 100 µM,32.2 µM,29 µM,,72.5 µM,51.7 µM,66.6 µM,34.7 µM,,,,,,,,,,
COc1ccc(Cl)cc1NC(=O)c1ccc(NC2=C(Cl)C(=O)N(Cc3ccccc3)C2=O)cc1,,> 100 µM,> 100 µM,> 100 µM,> 100 µM,13.4 µM,> 100 µM,> 100 µM,> 100 µM,> 100 µM,,47.4 µM,6.87 µM,> 100 µM,26.2 µM,1.43 µM,10.7 µM,> 100 µM,37.1 µM,> 100 µM
